The record followed here is patent publication US12435060B2, “Acylamino bridged heterocyclic compound, and composition and application thereof” (BEIJING SCITECH-MQ PHARMACEUTICALS LIMITED, priority 2019, dated 2025).

As usually defined, the IC50 is the midpoint of a concentration-inhibition curve.

The experiment deals with HT29 cells. Put plainly: Inhibition of cell necrosis (CCK8 method), induced programmed necrosis of HT29 cells. Format: cell-based. To be noted: Homo sapiens, HT-29; rescue from necrosis induced by TNF-α 20 ng/mL, AT-406 1 μM, Z-VAD-FMK 20 μM; 16-20 hours; CCK-8, OD 450 nm. The procedure, abridged:
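HT29 cells in McCOY's 5A with 10% FBS were pre-treated for 30 min with compound (9 fourfold steps, 25000 to 0.38 nM final, 0.25% DMSO). Necrosis was then induced with TNF-α 20 ng/mL, AT-406 1 μM and Z-VAD-FMK 20 μM for 16-20 h. Viability was read by CCK-8 OD450, normalized between uninduced and induced wells, and IC50 was curve-fitted.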
Background: Formazan colour is commonly taken as a measure of viable cells.

Compound `O=C(Nc1cc(-c2cc(OCCC3CCOCC3)ccc2Cl)c(Cl)cn1)c1nnc(Cc2ccccc2F)[nH]1` [Example 430, N-(5-chloro-4-(2-chloro-5-(2-(tetrahydro-2H-pyran-4-yl)ethoxy)phenyl)pyridin-2-yl)-5-(2-fluorobenzyl)-4H-1,2,4-triazole-3-carboxamide] registered an IC50 of 100 to 1000 nM.
With `O=C(Nc1cc(-c2cc(OCCC3CCOCC3)ccc2Cl)c(Cl)cn1)c1nnc(CC2CCCCC2)[nH]1` [Example 431, N-(5-chloro-4-(2-chloro-5-(2-(tetrahydro-2H-pyran-4-yl)ethoxy)phenyl)pyridin-2-yl)-5-(cyclohexylmethyl)-4H-1,2,4-triazole-3-carboxamide], the IC50 was in the range of 100 to 1000 nM.
Take `Cc1ccc(OCCCC(C)(C)O)cc1-c1cc(NC(=O)c2nnc(Cc3ccccc3)[nH]2)ncn1` [Example 432, 5-benzyl-N-(6-(5-((4-hydroxy-4-methylpentyl)oxy)-2-methylphenyl)pyrimidin-4-yl)-4H-1,2,4-triazole-3-carboxamide]: the IC50 is ≤ 100 nM.
Consider `Cc1ccc(OCCCC(C)(C)O)cc1-c1cc(NC(=O)c2nnc(Cc3ccccc3F)[nH]2)ncn1` [Example 433, 5-(2-fluorobenzyl)-N-(6-(5-((4-hydroxy-4-methylpentyl)oxy)-2-methylphenyl)pyrimidin-4-yl)-4H-1,2,4-triazole-3-carboxamide], for which the IC50 is ≤ 100 nM.
With `Cc1ccc(OCCCC(C)(C)O)cc1-c1cc(NC(=O)c2nnc(Cc3cccc(F)c3)[nH]2)ncn1` [Example 434, 5-(3-fluorobenzyl)-N-(6-(5-((4-hydroxy-4-methylpentyl)oxy)-2-methylphenyl)pyrimidin-4-yl)-4H-1,2,4-triazole-3-carboxamide] the figure was ≤ 100 nM; with `Cc1ccc(OCCCC(C)(C)O)cc1-c1cc(NC(=O)c2nnc(Cc3ccc(F)cc3F)[nH]2)ncn1` [Example 435, 5-(2,4-difluorobenzyl)-N-(6-(5-((4-hydroxy-4-methylpentyl)oxy)-2-methylphenyl)pyrimidin-4-yl)-4H-1,2,4-triazole-3-carboxamide], ≤ 100 nM; with `Cc1ccc(OCCCC(C)(C)O)cc1-c1cc(NC(=O)c2nnc(Cc3cc(F)ccc3F)[nH]2)ncn1` [Example 436, 5-(2,5-difluorobenzyl)-N-(6-(5-((4-hydroxy-4-methylpentyl)oxy)-2-methylphenyl)pyrimidin-4-yl)-4H-1,2,4-triazole-3-carboxamide], ≤ 100 nM.
The compound `Cc1ccc(OCCCC(C)(C)O)cc1-c1cc(NC(=O)c2nnc(Cc3cc(F)cc(F)c3)[nH]2)ncn1` [Example 437, 5-(3,5-difluorobenzyl)-N-(6-(5-((4-hydroxy-4-methylpentyl)oxy)-2-methylphenyl)pyrimidin-4-yl)-4H-1,2,4-triazole-3-carboxamide] gave an IC50 of 100 to 1000 nM.
Take `Cc1ccc(OCCCC(C)(C)O)cc1-c1cc(NC(=O)c2nnc(Cc3cccc(Cl)c3F)[nH]2)ncn1` [Example 438, 5-(3-chloro-2-fluorobenzyl)-N-(6-(5-((4-hydroxy-4-methylpentyl)oxy)-2-methylphenyl)pyrimidin-4-yl)-4H-1,2,4-triazole-3-carboxamide]: the IC50 lay within 100 to 1000 nM.
Turning to `Cc1ccc(OCCCC(C)(C)O)cc1-c1cc(NC(=O)c2nnc(CC3CCCC3)[nH]2)ncn1` [Example 439, 5-(cyclopentylmethyl)-N-(6-(5-((4-hydroxy-4-methylpentyl)oxy)-2-methylphenyl)pyrimidin-4-yl)-4H-1,2,4-triazole-3-carboxamide], the IC50 is ≤ 100 nM.
As for `Cc1ccc(OCCCC(C)(C)O)cc1-c1cc(NC(=O)c2nnc(CC3CCCCC3)[nH]2)ncn1` [Example 440, 5-(cyclohexylmethyl)-N-(6-(5-((4-hydroxy-4-methylpentyl)oxy)-2-methylphenyl)pyrimidin-4-yl)-4H-1,2,4-triazole-3-carboxamide], the IC50 is ≤ 100 nM.
`Cc1ccc(OCC2CCOCC2)cc1-c1cc(NC(=O)c2nnc(Cc3ccccc3)[nH]2)ncn1` [Example 441, 5-benzyl-N-(6-(2-methyl-5-((tetrahydro-2H-pyran-4-yl)methoxy)phenyl)pyrimidin-4-yl)-4H-1,2,4-triazole-3-carboxamide]: the IC50 was ≤ 100 nM.
`Cc1ccc(OCC2CCOCC2)cc1-c1cc(NC(=O)c2nnc(Cc3ccccc3F)[nH]2)ncn1` [Example 442, 5-(2-fluorobenzyl)-N-(6-(2-methyl-5-((tetrahydro-2H-pyran-4-yl)methoxy)phenyl)pyrimidin-4-yl)-4H-1,2,4-triazole-3-carboxamide]: the IC50 was ≤ 100 nM.
On to `Cc1ccc(OCC2CCOCC2)cc1-c1cc(NC(=O)c2nnc(CC3CCCC3)[nH]2)ncn1` [Example 443, 5-(cyclopentylmethyl)-N-(6-(2-methyl-5-((tetrahydro-2H-pyran-4-yl)methoxy)phenyl)pyrimidin-4-yl)-4H-1,2,4-triazole-3-carboxamide], for which the IC50 is ≤ 100 nM.
Regarding `Cc1ccc(OCC2CCOCC2)cc1-c1cc(NC(=O)c2nnc(CC3CCCCC3)[nH]2)ncn1` [Example 444, 5-(cyclohexylmethyl)-N-(6-(2-methyl-5-((tetrahydro-2H-pyran-4-yl)methoxy)phenyl)pyrimidin-4-yl)-4H-1,2,4-triazole-3-carboxamide], the IC50 was ≤ 100 nM.
Take `Cc1ccc(OCCC2CCOCC2)cc1-c1cc(NC(=O)c2nnc(Cc3ccccc3)[nH]2)ncn1` [Example 445, 5-benzyl-N-(6-(2-methyl-5-(2-(tetrahydro-2H-pyran-4-yl)ethoxy)phenyl)pyrimidin-4-yl)-4H-1,2,4-triazole-3-carboxamide]: the IC50 is ≤ 100 nM.
With `Cc1ccc(OCCC2CCOCC2)cc1-c1cc(NC(=O)c2nnc(Cc3ccccc3F)[nH]2)ncn1` [Example 446, 5-(2-fluorobenzyl)-N-(6-(2-methyl-5-(2-(tetrahydro-2H-pyran-4-yl)ethoxy)phenyl)pyrimidin-4-yl)-4H-1,2,4-triazole-3-carboxamide] the figure was ≤ 100 nM; with `Cc1ccc(OCCC2CCOCC2)cc1-c1cc(NC(=O)c2nnc(CC3CCCC3)[nH]2)ncn1` [Example 447, 5-(cyclopentylmethyl)-N-(6-(2-methyl-5-(2-(tetrahydro-2H-pyran-4-yl)ethoxy)phenyl)pyrimidin-4-yl)-4H-1,2,4-triazole-3-carboxamide], ≤ 100 nM; with `Cc1ccc(OCCC2CCOCC2)cc1-c1cc(NC(=O)c2nnc(CC3CCCCC3)[nH]2)ncn1` [Example 448, 5-(cyclohexylmethyl)-N-(6-(2-methyl-5-(2-(tetrahydro-2H-pyran-4-yl)ethoxy)phenyl)pyrimidin-4-yl)-4H-1,2,4-triazole-3-carboxamide], ≤ 100 nM.
Next, `Cc1ccc(OCCN2CCCCC2)cc1-c1cc(NC(=O)c2nnc(Cc3ccccc3F)[nH]2)ncn1` [Example 449, 5-(2-fluorobenzyl)-N-(6-(2-methyl-5-(2-(piperidin-1-yl)ethoxy)phenyl)pyrimidin-4-yl)-4H-1,2,4-triazole-3-carboxamide]: 100 to 1000 nM; `CC(C)(O)CCCOc1ccc(C(F)(F)F)c(-c2cc(NC(=O)c3nnc(Cc4ccccc4)[nH]3)ncn2)c1` [Example 450, 5-benzyl-N-(6-(5-((4-hydroxy-4-methylpentyl)oxy)-2-(trifluoromethyl)phenyl)pyrimidin-4-yl)-4H-1,2,4-triazole-3-carboxamide]: ≤ 100 nM; `CC(C)(O)CCCOc1ccc(C(F)(F)F)c(-c2cc(NC(=O)c3nnc(Cc4ccccc4F)[nH]3)ncn2)c1` [Example 451, 5-(2-fluorobenzyl)-N-(6-(5-((4-hydroxy-4-methylpentyl)oxy)-2-(trifluoromethyl)phenyl)pyrimidin-4-yl)-4H-1,2,4-triazole-3-carboxamide]: ≤ 100 nM.
For `CC(C)(O)CCCOc1ccc(C(F)(F)F)c(-c2cc(NC(=O)c3nnc(CC4CCCC4)[nH]3)ncn2)c1` [Example 452, 5-(cyclopentylmethyl)-N-(6-(5-((4-hydroxy-4-methylpentyl)oxy)-2-(trifluoromethyl)phenyl)pyrimidin-4-yl)-4H-1,2,4-triazole-3-carboxamide], the IC50 was ≤ 100 nM.
Consider `CC(C)(O)CCCOc1ccc(C(F)(F)F)c(-c2cc(NC(=O)c3nnc(CC4CCCCC4)[nH]3)ncn2)c1` [Example 453, 5-(cyclohexylmethyl)-N-(6-(5-((4-hydroxy-4-methylpentyl)oxy)-2-(trifluoromethyl)phenyl)pyrimidin-4-yl)-4H-1,2,4-triazole-3-carboxamide], for which the IC50 was ≤ 100 nM.
Consider `O=C(Nc1cc(-c2cc(OCC3CCOCC3)ccc2C(F)(F)F)ncn1)c1nnc(Cc2ccccc2)[nH]1` [Example 454, 5-benzyl-N-(6-(5-((tetrahydro-2H-pyran-4-yl)methoxy)-2-(trifluoromethyl)phenyl)pyrimidin-4-yl)-4H-1,2,4-triazole-3-carboxamide], for which the IC50 is ≤ 100 nM.
For the compound `O=C(Nc1cc(-c2cc(OCC3CCOCC3)ccc2C(F)(F)F)ncn1)c1nnc(Cc2ccccc2F)[nH]1` [Example 455, 5-(2-fluorobenzyl)-N-(6-(5-((tetrahydro-2H-pyran-4-yl)methoxy)-2-(trifluoromethyl)phenyl)pyrimidin-4-yl)-4H-1,2,4-triazole-3-carboxamide], the IC50 was ≤ 100 nM.
As for `O=C(Nc1cc(-c2cc(OCC3CCOCC3)ccc2C(F)(F)F)ncn1)c1nnc(CC2CCCC2)[nH]1` [Example 456, 5-(cyclopentylmethyl)-N-(6-(5-((tetrahydro-2H-pyran-4-yl)methoxy)-2-(trifluoromethyl)phenyl)pyrimidin-4-yl)-4H-1,2,4-triazole-3-carboxamide], the IC50 is ≤ 100 nM.
Take `O=C(Nc1cc(-c2cc(OCC3CCOCC3)ccc2C(F)(F)F)ncn1)c1nnc(CC2CCCCC2)[nH]1` [Example 457, 5-(cyclohexylmethyl)-N-(6-(5-((tetrahydro-2H-pyran-4-yl)methoxy)-2-(trifluoromethyl)phenyl)pyrimidin-4-yl)-4H-1,2,4-triazole-3-carboxamide]: the IC50 is ≤ 100 nM.
